Source: ChEMBL document CHEMBL1201862, “PubChem BioAssay data set” (2004)
Calls of active or inactive are those of the source.

Assays:
[1] = biological target: T1, E3 ubiquitin-protein ligase XIAP (Homo sapiens, UniProt P98170); test: Counter Screen using XIAP-Bir3 for Chemical Antagonists of Bir1/2 domains of IAP-family anti-apoptotic proteins. [Related pubchem assays (depositor defined):AID1018, AID1449, AID1514, AID1638, AID1749, AID1750, AID488957, AID488963]
[2] = biological target: T1, E3 ubiquitin-protein ligase XIAP; test: XIAP antagonists, biochemical, IAP family, fluorescence polarization (AID 1018); assay type: functional
[3] = biological target: T2, RNA-binding protein pos-1 (Caenorhabditis elegans, UniProt G5EF15); test: inhibitors of POS-1/mex-3 RNA binding, dose response, biochemical, fluorescence polarization (AID 1964);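 also: purified POS-1 fused to maltose binding protein made in E. coli; potency of compounds blocking POS-1 binding to fluorescent RNA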
T2 sequence (G5EF15 whole entry): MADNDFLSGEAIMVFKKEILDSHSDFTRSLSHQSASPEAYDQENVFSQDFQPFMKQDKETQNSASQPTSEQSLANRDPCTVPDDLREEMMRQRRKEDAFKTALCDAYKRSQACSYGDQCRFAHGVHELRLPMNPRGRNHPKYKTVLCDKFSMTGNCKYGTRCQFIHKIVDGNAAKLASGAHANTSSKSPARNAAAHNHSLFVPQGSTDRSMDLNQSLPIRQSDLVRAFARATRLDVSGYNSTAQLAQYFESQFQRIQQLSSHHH

[4] = biological target: T3, Zinc finger protein mex-5 (Caenorhabditis elegans, UniProt Q9XUB2); test: MEX-5/TCR-2 RNA interaction inhibitors, dose response, biochemical, C. elegans, fluorescence polarization (AID 1960)
T3 sequence (Q9XUB2 whole entry): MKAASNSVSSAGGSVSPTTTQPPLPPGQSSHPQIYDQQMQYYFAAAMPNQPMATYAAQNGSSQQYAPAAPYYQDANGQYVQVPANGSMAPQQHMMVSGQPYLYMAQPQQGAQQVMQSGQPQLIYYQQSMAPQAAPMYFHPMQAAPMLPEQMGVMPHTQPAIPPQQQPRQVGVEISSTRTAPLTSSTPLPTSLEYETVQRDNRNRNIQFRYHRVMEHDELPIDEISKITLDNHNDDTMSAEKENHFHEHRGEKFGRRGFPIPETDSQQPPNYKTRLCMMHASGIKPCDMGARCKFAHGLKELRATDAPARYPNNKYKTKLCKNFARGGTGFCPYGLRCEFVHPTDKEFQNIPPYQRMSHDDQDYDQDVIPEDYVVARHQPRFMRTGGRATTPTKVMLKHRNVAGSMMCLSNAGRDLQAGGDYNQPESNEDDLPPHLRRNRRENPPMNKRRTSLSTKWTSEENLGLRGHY

[5] = biological target: NS3 (Hepatitis C virus, UniProt A3EZJ3); test: PubChem AID 2173; set-up: species or system Hepacivirus hominis
[6] = biological target: Troponin, cardiac muscle (Homo sapiens, UniProt P19429+P45379+P63316); test: Fluorescence-based biochemical high throughput dose response assay for activators of the calcium sensitivity of cardiac Regulated Thin Filaments (RTF). [Related pubchem assays (depositor defined):AID493008, AID493018, AID504382, AID504383]; assay type: protein-complex assay
[7] = biological target: T4, Endoribonuclease toxin MazF (Escherichia coli K-12, UniProt P0AE70); test: MazF toxin RNase activators, dose response, biochemical, fluorescence, single-stranded RNA substrate, uHTS hits (AID 588481); assay type: functional
T4 sequence (P0AE70 whole entry): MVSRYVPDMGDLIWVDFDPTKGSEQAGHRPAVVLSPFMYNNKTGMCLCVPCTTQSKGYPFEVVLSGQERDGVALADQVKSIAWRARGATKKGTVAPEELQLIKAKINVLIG

[8] = biological target: T4, Endoribonuclease toxin MazF; test: fluorescent RNA oligo signal without MazF, dose response, counter-screen for MazEF activator project, biochemical, fluorescence, single-stranded RNase substrate (AID 588502); assay type: functional
[9] = cells; assay type: functional, cell-based
[10] = cells; assay type: functional, cell-based; remark: listed apart in the source
[11] = biological target: T5, Type-1 angiotensin II receptor (Homo sapiens, UniProt P30556); test: AT1 receptor agonists, dose response, selectivity assay for APJ receptor agonist project, cell-based, uHTS hits (AID 488865); assay type: functional;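 also: beta-arrestin recruitment to AT1 measured by enzyme fragment complementation luminescence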
T5 sequence (P30556 whole entry): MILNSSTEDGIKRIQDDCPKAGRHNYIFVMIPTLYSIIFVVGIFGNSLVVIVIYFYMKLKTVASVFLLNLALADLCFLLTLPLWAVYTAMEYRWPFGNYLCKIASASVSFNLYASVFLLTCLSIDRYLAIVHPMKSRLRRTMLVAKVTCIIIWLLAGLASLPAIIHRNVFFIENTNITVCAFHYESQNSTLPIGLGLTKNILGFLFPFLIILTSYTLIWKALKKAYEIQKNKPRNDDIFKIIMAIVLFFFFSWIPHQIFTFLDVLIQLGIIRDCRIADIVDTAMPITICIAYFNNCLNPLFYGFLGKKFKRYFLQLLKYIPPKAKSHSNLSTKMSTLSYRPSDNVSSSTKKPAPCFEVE

[12] = tested on: H9c2; test: cells; assay type: functional, cell-based; details: Rattus norvegicus, H9c2, Myocardium;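 also: confirmatory concentration-response retest of ultra-high-throughput screening hits for modulation of myocardial damage; cell death induced by hydrogen peroxide oxidative stress; compound pretreatment for 60 min then peroxide exposure for 2 h; potency is for protecting the cells against peroxide damage rather than for killing them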
[13] = A549 cell cytotoxicity, dose response, cytotoxicity control, plate reader, cherry-pick, antagonist series (AID 743412); assay type: functional, cell-based
[14] = HepG2 cell cytotoxicity, dose response, cytotoxicity control, plate reader, cherry-pick, antagonist series (AID 743416); assay type: functional, cell-based
[15] = LGR2 antagonists, dose response, cell-based, HEK293, CRE-luciferase reporter, cherry pick, set 2 (AID 743343); assay type: functional;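 also: transfected cells were stimulated with diluted bursicon conditioned medium after compound addition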
[16] = MC4R antagonists, dose response, counter-screen for LGR2 antagonist project, cell-based, plate reader, cherry pick (AID 743444); assay type: functional;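 also: transfected HEK 293 cells stimulated with alpha-MSH peptide; potency of inhibitors of the alpha-MSH evoked signal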
[17] = biological target: G-protein coupled receptor 55 (Homo sapiens, UniProt Q9Y2T6); test: GPR55 antagonists blocking LPI-driven arrestin recruitment, primary screen, imaging, U2OS, beta-arrestin-GFP, LPI agonist (AID 2013); assay type: functional;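 also: antagonist potency measured as reduced agonist-driven arrestin aggregation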
Chain of G-protein coupled receptor 55 (Q9Y2T6 whole entry): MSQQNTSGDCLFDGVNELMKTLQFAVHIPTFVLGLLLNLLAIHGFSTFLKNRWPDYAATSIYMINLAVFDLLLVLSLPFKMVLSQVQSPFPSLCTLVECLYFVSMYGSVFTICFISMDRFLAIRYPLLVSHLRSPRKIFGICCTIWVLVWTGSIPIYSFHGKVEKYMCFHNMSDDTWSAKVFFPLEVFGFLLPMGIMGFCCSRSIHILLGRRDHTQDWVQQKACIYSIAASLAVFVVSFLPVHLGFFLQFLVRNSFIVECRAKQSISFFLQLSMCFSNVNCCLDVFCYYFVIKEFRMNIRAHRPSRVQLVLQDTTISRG

T1 sequence (P98170 whole entry): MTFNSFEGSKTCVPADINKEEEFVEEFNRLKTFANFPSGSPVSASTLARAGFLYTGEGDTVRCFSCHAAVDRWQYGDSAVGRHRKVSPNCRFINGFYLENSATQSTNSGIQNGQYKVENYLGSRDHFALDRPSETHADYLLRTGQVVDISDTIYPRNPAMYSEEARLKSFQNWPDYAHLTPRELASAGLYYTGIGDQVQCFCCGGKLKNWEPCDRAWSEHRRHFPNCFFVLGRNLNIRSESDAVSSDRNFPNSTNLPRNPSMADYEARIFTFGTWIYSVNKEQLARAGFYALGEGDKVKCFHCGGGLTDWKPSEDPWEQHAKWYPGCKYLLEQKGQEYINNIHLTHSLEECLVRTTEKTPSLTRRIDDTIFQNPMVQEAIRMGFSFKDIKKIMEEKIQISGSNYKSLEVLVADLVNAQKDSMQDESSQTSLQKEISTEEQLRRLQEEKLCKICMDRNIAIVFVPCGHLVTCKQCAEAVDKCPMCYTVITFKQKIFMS
Chain of NS3 (A3EZJ3 whole entry): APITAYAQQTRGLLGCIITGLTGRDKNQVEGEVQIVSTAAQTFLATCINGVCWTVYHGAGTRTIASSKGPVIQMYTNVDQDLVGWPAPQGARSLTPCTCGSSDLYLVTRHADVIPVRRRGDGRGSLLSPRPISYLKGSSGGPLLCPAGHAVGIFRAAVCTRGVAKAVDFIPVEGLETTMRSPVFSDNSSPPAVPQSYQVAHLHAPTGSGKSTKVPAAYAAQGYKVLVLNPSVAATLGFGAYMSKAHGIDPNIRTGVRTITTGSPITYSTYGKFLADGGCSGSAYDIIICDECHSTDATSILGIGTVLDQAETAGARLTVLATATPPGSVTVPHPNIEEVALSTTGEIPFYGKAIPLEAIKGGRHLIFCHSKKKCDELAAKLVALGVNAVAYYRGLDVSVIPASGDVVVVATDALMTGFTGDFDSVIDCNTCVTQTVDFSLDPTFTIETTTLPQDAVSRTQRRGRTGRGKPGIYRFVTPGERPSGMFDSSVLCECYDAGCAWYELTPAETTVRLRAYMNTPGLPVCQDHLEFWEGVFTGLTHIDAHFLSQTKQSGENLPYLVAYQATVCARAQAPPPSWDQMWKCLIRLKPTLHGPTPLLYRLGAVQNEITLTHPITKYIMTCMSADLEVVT

SMILES: CCC(C)NC(=O)C(=O)NC1CCCC1 (stereo not given)
- IC50 [1]: > 100 µM (inactive)
- IC50 [2]: > 100 µM (not active)

SMILES: CSc1ccc(C2C(C(=O)c3ccco3)=C(O)C(=O)N2c2nnc(SC)s2)cc1 (stereo not given)
- EC50 [3]: 6.79 µM (active)
- EC50 [4]: 16.4 µM (active)
- IC50 [5]: 4.87 µM (active)
- EC50 [6]: 0.279 µM (active)
- EC50 [7]: > 99 µM (inactive)
- EC50 [8]: > 99 µM (inactive)

SMILES: CC(C)C(=O)N1CCN(c2ccc(NC(=O)COc3ccccc3[N+](=O)[O-])cc2)CC1
- EC50 [9]: > 350 µM (not active)
- EC50 [10]: > 350 µM (not active)
- EC50 [11]: > 100 µM (inactive)
- IC50 [12]: > 79 µM (inactive)
- AC50 [13]: > 52 µM (inactive)
- AC50 [14]: 41.7 µM (active)
- AC50 [15]: 31.2 µM (active)
- AC50 [16]: 20 µM (active)

SMILES: C#CCN(CC=C)C(=O)c1ccc2nc(C3CCCCC3)oc2c1
- IC50 [17]: 4.55 µM (active)

SMILES: CN(C)CCCN(C(=O)c1ccc(S(=O)(=O)N2CCc3ccccc3C2)cc1)c1nc2c(F)cccc2s1
- EC50 [11]: > 100 µM (inactive)

SMILES: Cc1ccc(NS(=O)(=O)c2cc(C(=O)N(C)C)ccc2C)cc1C
- IC50 [1]: > 100 µM (inactive)
- IC50 [2]: > 100 µM (not active)
